In assay [1] the test system is SH-SY5Y. In words: Neuroprotective activity in human SH-SY5Y cells under oxygen and glucose deprived condition assessed as cell survival at 5 uM co-incubated for 4 hrs under anaerobic condition measured after 20 hrs by MTT assay relative to control. The class given is functional. Particulars: read-out: Survival. A general note: Tetrazolium assays rely on reduction of a dye to a coloured formazan, in cell work by metabolically active cells.

Assay [2] deals with SH-SY5Y. The assay is described as follows: Neuroprotective activity in human SH-SY5Y cells assessed as inhibition of potassium-induced Ca2+ increase preincubated for 15 mins followed by potassium addition measured for 14 seconds by fluorescence assay. The class given is functional, cell-based.
The subject of assay [3] is SH-SY5Y. In words: Neuroprotective activity in human SH-SY5Y cells under oxygen and glucose deprived condition assessed as protection against oxidative stress at 5 uM co-incubated for 4 hrs under anaerobic condition measured after 20 hrs by MTT assay relative to control. Format: functional.
Assay [4] deals with SH-SY5Y. The assay is described as follows: Neuroprotective activity in human SH-SY5Y cells assessed as inhibition of potassium-induced Ca2+ increase at 10 uM preincubated for 15 mins followed by potassium addition measured for 14 seconds by fluorescence assay relative to control. The class given is functional.
The subject of assay [5] is SH-SY5Y. In words: Neuroprotective activity in human SH-SY5Y cells under serum-free condition assessed as cell survival at 5 uM after 24 hrs by MTT assay in presence of potassium relative to control. The class given is functional. To be noted: read-out: Survival.
Assay [6] has as its system SH-SY5Y. The assay is described as follows: Neuroprotective activity in human SH-SY5Y cells under serum-free condition assessed as protection against potassium-induced toxicity at 5 uM after 24 hrs by MTT assay relative to control. The class given is functional.
The test system of assay [7] is SH-SY5Y. The assay is described as follows: Neuroprotective activity in human SH-SY5Y cells under oxygen and glucose deprived condition assessed as protection against oxidative stress at 0.1 uM co-incubated for 4 hrs under anaerobic condition measured after 20 hrs by MTT assay relative to control. Format: functional.
Assay [8] has as its system SH-SY5Y. The assay is described as follows: Neuroprotective activity in human SH-SY5Y cells under oxygen and glucose deprived condition assessed as cell survival at 0.1 uM co-incubated for 4 hrs under anaerobic condition measured after 20 hrs by MTT assay relative to control. The class given is functional. Particulars: read-out: Survival.
For assay [9], the system named is SH-SY5Y. In words: Neuroprotective activity in human SH-SY5Y cells under oxygen and glucose deprived condition assessed as cell survival at 0.3 uM co-incubated for 4 hrs under anaerobic condition measured after 20 hrs by MTT assay relative to control. The class given is functional. Particulars: read-out: Survival.
The subject of assay [10] is SH-SY5Y. In words: Neuroprotective activity in human SH-SY5Y cells under serum-free condition assessed as protection against potassium-induced toxicity at 0.3 uM after 24 hrs by MTT assay relative to control. Format: functional.
In assay [11] the test system is SH-SY5Y. In words: Neuroprotective activity in human SH-SY5Y cells under serum-free condition assessed as cell survival at 0.3 uM after 24 hrs by MTT assay in presence of potassium relative to control. The class given is functional. Particulars: read-out: Survival.
The subject of assay [12] is SH-SY5Y. In words: Neuroprotective activity in human SH-SY5Y cells under oxygen and glucose deprived condition assessed as protection against oxidative stress at 0.3 uM co-incubated for 4 hrs under anaerobic condition measured after 20 hrs by MTT assay relative to control. The class given is functional.

For orientation: IC50 means the concentration at which inhibition is half-maximal. The inhibition is the share of the control response that was lost under treatment. For the compound `COc1ccc(C2C=C(c3ccccc3)NC(C)=C2C(=O)SC(C)(C)C)cc1` (stereo unspecified), the viability at 5 µM was 57.6% in the assay on SH-SY5Y [1] and 66.7% in the assay with SH-SY5Y [5]. The IC50 in the assay with SH-SY5Y [2] is 26.8 µM. Further, the inhibition entry in the assay with SH-SY5Y [2] is “Dose-dependent effect”. Besides, the values for the Activity in the assay with SH-SY5Y [3] and with SH-SY5Y [6] were 17.38% and 31.27%, respectively. Also, the inhibition at 10 µM in the assay on SH-SY5Y [4] stood at 52.3%.

`CCOC(=O)C1=C(CC)NC(c2ccccc2)=CC1c1ccccc1` (stereo unspecified): the values for the viability at 5 µM in the assay on SH-SY5Y [1] and with SH-SY5Y [5] were 57.6% and 67.3%, respectively. Also, in the assay with SH-SY5Y [2], the IC50 came out at 12.8 µM. Besides, in the assay on SH-SY5Y [2], the inhibition entry was “Dose-dependent effect”. In addition, the Activity is listed as 17.69% in the assay on SH-SY5Y [3] and 31.37% with SH-SY5Y [6]. The inhibition at 10 µM in the assay with SH-SY5Y [4] was determined as 53.8%.

Take `CC1=C(C(=O)SC(C)(C)C)C(c2ccc(C)cc2)C=C(c2ccc(C)cc2)N1` (stereo unspecified): the viability at 5 µM in the assay on SH-SY5Y [1] worked out at 56%; with SH-SY5Y [5] it was 69.8%. In addition, the Activity came to 12.66% with SH-SY5Y [3] and 36.24% with SH-SY5Y [6]. The inhibition at 10 µM in the assay on SH-SY5Y [4] worked out at 12.6%.

As for `CC1=C(C(=O)SC(C)(C)C)C(c2ccccc2)C=C(c2ccccc2)N1` (stereo unspecified), the viability at 5 µM was found to be 61.5% with SH-SY5Y [1] and 68% in the assay on SH-SY5Y [5]. Also, the figures for the Activity in the assay with SH-SY5Y [3] and in the assay with SH-SY5Y [6] were 24.91% and 34.13%, respectively. Besides, in the assay on SH-SY5Y [4], the inhibition at 10 µM was found to be 35.1%.

As for `CC1=C(C(=O)SC(C)(C)C)C(/C(C)=C/c2ccccc2)C=C(c2ccccc2)N1` (stereo unspecified), the results for the viability at 5 µM with SH-SY5Y [1] and in the assay on SH-SY5Y [5] were 63.9% and 69%, respectively. For the same compound, the Activity is reported as 35.82% in the assay on SH-SY5Y [3] and 35.26% with SH-SY5Y [6]. The inhibition at 10 µM in the assay with SH-SY5Y [4] stood at 40%.

With `COc1ccc2[nH]cc(CCNC(C)=O)c2c1` [MELATONIN], in the assay with SH-SY5Y [7], the Activity is given as 28.85%. Further, in the assay on SH-SY5Y [8], the viability at 0.1 µM is 65.8%.

Take `CCOC(=O)C1=C(C)NC(c2ccc(Cl)cc2)=CC1c1ccccc1` (stereo unspecified): the viability at 5 µM in the assay with SH-SY5Y [1] turned out to be 58.9%; with SH-SY5Y [5], 69.3%. Further, the figures for the Activity in the assay with SH-SY5Y [3] and with SH-SY5Y [6] were 19.26% and 36.57%, respectively. Moreover, in the assay with SH-SY5Y [4], the inhibition at 10 µM was 44.9%.

Regarding `CC(=O)C1=C(C)NC(c2ccccc2)=CC1c1ccccc1` (stereo unspecified), the viability at 5 µM in the assay on SH-SY5Y [1] came out at 53.9%; in the assay on SH-SY5Y [5], 67.4%. The Activity stood at 9.06% in the assay with SH-SY5Y [3] and 32.46% in the assay with SH-SY5Y [6]. Also, the inhibition at 10 µM with SH-SY5Y [4] was 33.8%.

For `O=C1CCCC2=C1C(c1ccccc1)C=C(c1ccccc1)N2` (stereo unspecified), the values for the viability at 5 µM in the assay on SH-SY5Y [1] and in the assay with SH-SY5Y [5] were 62.1% and 66.4%, respectively. In addition, the Activity came out at 26.8% in the assay with SH-SY5Y [3] and 28.23% with SH-SY5Y [6]. For the same compound, the inhibition at 10 µM in the assay on SH-SY5Y [4] is 41.2%.

Turning to `CC1=C(C(=O)SC(C)(C)C)C(c2ccc(C)cc2)C=C(c2ccccc2)N1` (stereo unspecified), the viability at 5 µM turned out to be 64.7% with SH-SY5Y [1] and 67.4% in the assay with SH-SY5Y [5]. The Activity in the assay with SH-SY5Y [3] turned out to be 31.16%; in the assay with SH-SY5Y [6] it was 30.44%. Further, in the assay with SH-SY5Y [4], the inhibition at 10 µM was determined as 36.8%.

In the case of `COC(=O)C1=C(C)NC(C)=C(C(=O)OC)C1c1ccccc1[N+](=O)[O-]` [NIFEDIPINE], the results for the viability at 0.3 µM in the assay on SH-SY5Y [9] and in the assay on SH-SY5Y [11] were 55% and 58.7%, respectively. Further, the Activity stood at 15.76% in the assay on SH-SY5Y [10] and 12.4% in the assay on SH-SY5Y [12]. For the same compound, the inhibition at 10 µM in the assay on SH-SY5Y [4] was determined as 59.8%.

`CCOC(=O)C1=C(C)NC(c2ccc(C)cc2)=CC1c1cccs1` (stereo unspecified): the viability at 5 µM with SH-SY5Y [1] is 64.7%; in the assay with SH-SY5Y [5] it was 75.6%. Moreover, the figures for the Activity with SH-SY5Y [3] and with SH-SY5Y [6] were 31.04% and 50.73%, respectively. Moreover, in the assay with SH-SY5Y [4], the inhibition at 10 µM was 36.6%.

For `CC1=C(C(=O)SC(C)(C)C)C(c2ccc(Br)cc2)C=C(c2ccc(C)cc2)N1` (stereo unspecified), the results for the viability at 5 µM with SH-SY5Y [1] and in the assay on SH-SY5Y [5] were 60.3% and 67.2%, respectively. In addition, the Activity turned out to be 21.83% in the assay on SH-SY5Y [3] and 34.46% with SH-SY5Y [6]. For the same compound, in the assay with SH-SY5Y [4], the inhibition at 10 µM worked out at 35.4%.

Take `CCOC(=O)C1=C(C)NC(c2ccccc2)=CC1c1ccccc1` (stereo unspecified): the viability at 5 µM amounted to 60.8% in the assay with SH-SY5Y [1] and 67.6% in the assay on SH-SY5Y [5]. Also, the Activity came out at 22.76% with SH-SY5Y [3] and 34.65% in the assay with SH-SY5Y [6]. Moreover, the inhibition at 10 µM with SH-SY5Y [4] is 32.5%.

(Values after ChEMBL document CHEMBL3217626, “Identification of 4,6-diaryl-1,4-dihydropyridines as a new class of neuroprotective agents” (Medchemcomm, 2013).)
